Legend:
[1] = target: P. aeruginosa PqsA (Pseudomonas aeruginosa, UniProt Q9I4X3); test: PqsA inhibition, spectrophotometric assay with recombinant PqsA (anthranilyl-CoA formation at 365 nm); type: biochemical; settings: for PqsA inhibition, potency in words: short time scale of the assay; for IC50: IC50 for inhibition of P. aeruginosa PqsA; for inhibition at 10 µM: read-out: % inhibition at 10 μM of P. aeruginosa PqsA, 10 μM
Experimental: PqsA inhibitors were evaluated using a quantitative spectrophotometric assay with recombinant PqsA, detecting formation of anthranilyl-CoA at 365 nm. See, e.g., Coleman et al. (2008) J. Bacteriol. 190, 1247. […] See, e.g., Morrison et al. Biochim. Biophys. Acta, Enzymol. 185, 269-286; Williams et al. (1979) Methods Enzymol. 63, 437. […] See, e.g., Qiao et al. (2007) J. Am. Chem. Soc. 129, 6350.
Reactions were performed at 37° C. in a 0.5 mL volume in a Varian Cary 100 UV-visible spectrophotometer with Cary WinUV software. Reaction mixtures contained 100 mM HEPES, pH 8.0, 0.2 mM dithiothreitol, 2 mM MgCl2, ˜3.3 μg PqsA protein (˜60 nM final), and depending on which substrate varied, 1 mM ATP (disodium salt), 0.5 mM coenzyme A (tri-lithium salt), 0.5 mM sodium anthranilate, and inhibitor (usually as a DMSO stock solution). Reactions were blanked and preincubated with all components except anthranilate at 37° C. for 1 min, then initiated by addition of anthranilate. Formation of anthraniloyl-CoA was monitored ance at 365 nm (ε=5.5 mM−1 cm−1) for 1 min. Data were analyzed using GraphPad Prism 6 software.

[2] = test system: HHQ and PQS quinolone production in P. aeruginosa strain PA14; test: Inhibition of HHQ and PQS quinolone production in P. aeruginosa strain PA14 (LC-MS/MS); type: cell-based, Pseudomonas aeruginosa; settings: 1.5 mM, HHQ 8 h, PQS 20 h
Experimental: The production of PQS and HHQ by strain PA14 was performed in triplicate in 14-mL round bottom falcon tubes containing 3-mL cultures in LB medium. Tubes were incubated at 37° C. in an orbital shaker at 225 rpm. Cultures were inoculated with 15-hour culture in LB in order to obtain a starting OD600=0.05, with or without inhibitors added. For PQS and HHQ analysis, a 20 μl aliquot was taken at time points as indicated. Each sample was diluted with 180 μL of methanol containing the internal standard (100 μM of d^4-PQS or d^4-HHQ) and 2% acetic acid. The solution was then vertexed and centrifuged at 13,000 g for 5 minutes, and the supernatant was transferred to a 96-well plates for LC-MS/MS analysis. Bacterial growth was measured by recording OD600 at 20 h to provide the data in FIG. 7A.
Liquid chromatography tandem mass spectrometry (LC-MS/MS) was carried out on an Agilent Technologies 6410 triple quad LC-MS/MS system with autosampler in electrospray ionization (ESI) mode, with an Agilent Zorbax Eclipse XDB-C18 reverse phase column (50×4.6 mm, 5 μm) using a flow rate of 0.5 mL/minute and an isocratic mobile phase of 60% CH3CN in 0.1% aqueous formic acid over 5 minutes. Positive electrospray in MRM mode was employed to quantify PQS and HHQ, using the ion transitions HHQ 244 to 159, d^4-HHQ 248 to 163, PQS 260 to 175, and d^4-PQS 264 to 179; shown in Table E3.
PqsA inhibitors 1-5 were evaluated for their ability to inhibit HHQ and PQS quinolone production in P. aeruginosa strain PA14 (FIG. 6). HHQ and PQS concentrations were determined by LC-MS/MS quantitation relative to deuterated internal standards. 6-Fluoroanthranilate (6FABA), a substrate analogue reported previously to inhibit quinolone production at millimolar concentrations, was used as a positive control. Compounds were initially tested at 1.5 mM concentration, and HHQ and PQS were quantified at 8 and 20 hours, respectively. These time points were selected based on an initial time course study of quinolone production in the absence of inhibitors, with HHQ or PQS production peaking at these respective time points. […] This could be due to differences in cell penetration, stability, and/or target specificity. Finally, because inhibitors of the quinolone quorum sensing pathway should not impact bacterial growth, we confirmed that none of the six inhibitors above inhibited growth over 20 h (FIG. 7A). Encouraged by the ability of anthranilyl-AMS (1) and anthranilyl-AMSN (2) to inhibit HHQ and PQS quinolone production, the activity of these two inhibitors and 6FABA were investigated in greater detail. In untreated controls, HHQ and PQS production peaked at 8 and 20 hours, respectively. Previously reported time course studies have similarly shown that HHQ levels peak at 6-8 hours while PQS levels continue to rise. See, e.g., Deziel et al. (2004) Proc. Natl. Acad. Sci. U.S.A 101, 1339; Kesarwani et al. (2011) PLoS Pathog. 7, e1002192. All three inhibitors were able to decrease quinolone production in a dose- and time-dependent manner (FIG. 2A). […] Such a perturbation might still be sufficient to impact P. aeruginosa virulence in vivo. […] See, e.g., Lesic et al. (2007) PLoS Pathog. 3, e126.

[3] = target: PqsA (Pseudomonas aeruginosa, UniProt Q9I4X3); settings: previous biochemical studies; read-out: Km as PqsA substrate; cited from earlier work

SMILES | IC50 [1] | inhibition at 10 µM [1] | further results
Nc1ncnc2c1ncn2[C@@H]1O[C@H](COS(=O)(=O)NC(=O)c2ccccc2)[C@@H](O)[C@H]1O [Benzoyl-AMS, reference compound] | – | – | PqsA inhibition, potency in words [1]: somewhat weaker inhibitor; inhibition of quinolone production, in words [2]: less potent inhibitors of quinolone production
Nc1ccccc1C(=O)NS(=O)(=O)OC[C@H]1O[C@@H](n2cnc3c(N)ncnc32)[C@H](O)[C@@H]1O [DST-Pqs1] | 0.309 µM | 98.6 ± 2.3% | –
Nc1ccccc1C(=O)NS(=O)(=O)NC[C@H]1O[C@@H](n2cnc3c(N)ncnc32)[C@H](O)[C@@H]1O [DST-Pqs2] | 0.213 µM | 100% | –
Nc1ncnc2c1ncn2[C@@H]1O[C@H](COS(=O)(=O)NC(=O)c2cccnc2Cl)[C@@H](O)[C@H]1O [DST-Pqs8] | – | 10.3 ± 5.3% | –
Nc1cc2ccccc2cc1C(=O)NS(=O)(=O)OC[C@H]1O[C@@H](n2cnc3c(N)ncnc32)[C@H](O)[C@@H]1O [DST-Pqs9] | – | < 1% | –
Nc1cc(C(F)(F)F)ccc1C(=O)NS(=O)(=O)OC[C@H]1O[C@@H](n2cnc3c(N)ncnc32)[C@H](O)[C@@H]1O [DST-Pqs10] | – | 1.1 ± 2.6% | –
Nc1cc(F)ccc1C(=O)NS(=O)(=O)OC[C@H]1O[C@@H](n2cnc3c(N)ncnc32)[C@H](O)[C@@H]1O [DST-Pqs11] | 0.107 µM | 100% | –
Nc1cccc(F)c1C(=O)NS(=O)(=O)OC[C@H]1O[C@@H](n2cnc3c(N)ncnc32)[C@H](O)[C@@H]1O [DST-Pqs12] | 0.516 µM | 100% | –
Nc1c(Cl)cccc1C(=O)NS(=O)(=O)OC[C@H]1O[C@@H](n2cnc3c(N)ncnc32)[C@H](O)[C@@H]1O [DST-Pqs13] | 1.23 µM | 97.2 ± 1.2% | –
Nc1cc(Cl)ccc1C(=O)NS(=O)(=O)OC[C@H]1O[C@@H](n2cnc3c(N)ncnc32)[C@H](O)[C@@H]1O [DST-Pqs14] | 0.828 µM | – | –
Nc1ccc(Cl)cc1C(=O)NS(=O)(=O)OC[C@H]1O[C@@H](n2cnc3c(N)ncnc32)[C@H](O)[C@@H]1O [DST-Pqs15] | 1.53 µM | 97.3 ± 0.9% | –
Nc1cccc(Cl)c1C(=O)NS(=O)(=O)OC[C@H]1O[C@@H](n2cnc3c(N)ncnc32)[C@H](O)[C@@H]1O [DST-Pqs16] | 0.552 µM | 100% | –
Nc1ccccc1C(=O)NS(=O)(=O)OC[C@H]1O[C@@H](n2cnc3c(NC4CC4)ncnc32)[C@H](O)[C@@H]1O [DST-Pqs17] | – | 1.3 ± 3% | –
CN(C)c1ncnc2c1ncn2[C@@H]1O[C@H](COS(=O)(=O)NC(=O)c2ccccc2N)[C@@H](O)[C@H]1O [DST-Pqs18] | – | 21.3 ± 1.9% | –
CNc1ncnc2c1ncn2[C@@H]1O[C@H](COS(=O)(=O)NC(=O)c2ccccc2N)[C@@H](O)[C@H]1O [DST-Pqs19] | 39.2 µM | 32.1 ± 2.8% | –
NCc1ccccc1Nc1nc(N)c2ncn([C@@H]3O[C@H](COS(=O)(=O)NC(=O)c4ccccc4N)[C@@H](O)[C@H]3O)c2n1 [DST-Pqs27] | 5.24 µM | 84.8 ± 1.5% | –
NCc1ccc(Nc2nc(N)c3ncn([C@@H]4O[C@H](COS(=O)(=O)NC(=O)c5ccccc5N)[C@@H](O)[C@H]4O)c3n2)cc1 [DST-Pqs28] | – | – | % inhibition at 10 μM of P. aeruginosa PqsA [1]: 9.5 ± 3.9%

SMILES | IC50 [1] | inhibition at 10 µM [1] | further results
NCc1ccc(Nc2nc(N)c3ncn([C@@H]4O[C@H](COS(=O)(=O)NC(=O)c5ccccc5N)[C@@H](O)[C@H]4O)c3n2)cc1 [DST-Pqs29] | – | – | % inhibition at 10 μM of P. aeruginosa PqsA [1]: 76.0 ± 1.3%
Nc1ncnc2c1ncn2[C@@H]1O[C@H](COS(=O)(=O)NC2(c3ccccc3F)COC2)[C@@H](O)[C@H]1O [DST-Pqs30] | – | < 1% | –
Nc1ncnc2c1ncn2[C@@H]1O[C@H](COS(=O)(=O)NC2(c3ccccc3O)COC2)[C@@H](O)[C@H]1O [DST-Pqs31] | – | < 1% | –
Nc1ncnc2c1ncn2[C@@H]1O[C@H](COS(=O)(=O)NC2(c3ccccc3)COC2)[C@@H](O)[C@H]1O [DST-Pqs32] | – | 2.3 ± 0.9% | –
Nc1ccccc1C1(NS(=O)(=O)OC[C@H]2O[C@@H](n3cnc4c(N)ncnc43)[C@H](O)[C@@H]2O)COC1 [DST-Pqs33] | – | 4.6 ± 2.9% | –
Nc1ccccc1C(=O)NS(=O)(=O)OC[C@H]1O[C@@H](n2cnc3c(N)ncnc32)[C@H](N)[C@@H]1N [JI-C-2013-189] | 7.22 µM | 77.8 ± 0.2% | –
Nc1ccccc1C(=O)NS(=O)(=O)OC[C@H]1O[C@@H](n2cnc3c(N)nc(Nc4ccccc4)nc32)[C@H](O)[C@@H]1O [JI-C-2013-451] | 2.07 µM | 95.1 ± 0.2% | –
Nc1ccccc1C(=O)NS(=O)(=O)OC[C@H]1O[C@@H](n2cnc3c(N)nc(-c4ccccc4)nc32)[C@H](O)[C@@H]1O [JI-C-2013-454] | 25 µM | 42.7 ± 0.2% | –
Nc1ccccc1C(=O)NS(=O)(=O)OC[C@H]1O[C@@H](n2cnc3c(N)nc(C#Cc4ccccc4)nc32)[C@H](O)[C@@H]1O [JI-C-2013-456] | 1.46 µM | 95.9 ± 0.4% | –
Nc1ccccc1C(=O)NS(=O)(=O)OC[C@H]1O[C@@H](n2cnc3c(N)ncnc32)C[C@@H]1O [JI-C-2014-008] | 0.444 µM | 99.8 ± 0.2% | –
Nc1ccccc1C(=O)NS(=O)(=O)OC[C@@H]1CC[C@H](n2cnc3c(N)ncnc32)O1 [JI-C-2014-025] | 5 µM | 91.2 ± 0.9% | –
Nc1ccccc1C(=O)O [anthranilate] | – | – | Km [3]: 8 µM
O=C(O)c1ccccc1 [benzoate] | – | – | Km [3]: 150 µM
Nc1ccccc1/C=C/S(=O)(=O)NC[C@H]1O[C@@H](n2cnc3c(N)ncnc32)[C@H](O)[C@@H]1O [compound 6, Anthranilyl-AVSN] | – | – | PqsA inhibition, potency in words [1]: not as effective
Nc1ncnc2c1ncn2[C@@H]1O[C@H](CNS(=O)(=O)/C=C/c2ccccc2O)[C@@H](O)[C@H]1O [compound 7, Salicyl-AVSN, reference compound] | – | – | PqsA inhibition, potency in words [1]: not as effective
Nc1ncnc2c1ncn2[C@@H]1O[C@H](COS(=O)(=O)NC(=O)c2ccccc2O)[C@@H](O)[C@H]1O [salicyl-AMS, Salicyl-AMS, reference compound] | – | – | PqsA inhibition, potency in words [1]: potency similar to that of the cognate anthranilyl inhibitors; inhibition of quinolone production, in words [2]: less potent inhibitors of quinolone production
Nc1ncnc2c1ncn2[C@@H]1O[C@H](CNS(=O)(=O)NC(=O)c2ccccc2O)[C@@H](O)[C@H]1O [salicyl-AMSN, Salicyl-AMSN, reference compound] | – | – | PqsA inhibition, potency in words [1]: potency similar to that of the cognate anthranilyl inhibitors; inhibition of quinolone production, in words [2]: less potent inhibitors of quinolone production

From patent US10874686B2, “Anthranilyl-adenosinemonosulfamate analogs and uses thereof” (Memorial Sloan-Kettering Cancer Center, priority 2015, dated 2020)
